According to patent publication US7517857B2, “Immune-modulating peptide” (POSCO, priority 2002, dated 2009):
Where a SMILES comes first, the peptide text is derived from it. [ ]: non-standard residue; d: D form.

Legend:
Format in all cases: cell-based
FPRL1 [1] = target: T1, FPRL1 (Homo sapiens, UniProt P25090); assay: Exocytosis: β-hexosaminidase secretion in FPRL1-expressing RBL-2H3 cells; conditions: FPRL1 cells; 10 μM of each peptide (WKYMVm also various concentrations)
T1 construct: expressed in transfected cells; host or cells: RBL-2H3 (rat basophilic leukemia) cells, G418-selected
T1 sequence (P25090 1-351): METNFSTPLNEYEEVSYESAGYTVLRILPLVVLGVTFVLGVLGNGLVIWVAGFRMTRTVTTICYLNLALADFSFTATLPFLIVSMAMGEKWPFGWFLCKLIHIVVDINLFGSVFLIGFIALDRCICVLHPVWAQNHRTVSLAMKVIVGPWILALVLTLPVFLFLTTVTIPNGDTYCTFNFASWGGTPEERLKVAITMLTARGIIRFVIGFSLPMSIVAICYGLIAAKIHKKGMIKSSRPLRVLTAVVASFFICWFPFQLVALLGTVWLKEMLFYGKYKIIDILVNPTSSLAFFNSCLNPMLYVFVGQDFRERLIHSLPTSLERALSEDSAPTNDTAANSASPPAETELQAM
Procedure: Granule secretion is one of the most important function of mast cells (20). The effect of WKYMVm on granule secretion was checked by measuring β-hexosaminidase secretion as described above (18). Briefly, RBL-2H3 cells (2×10^5/well) expressing FPR or FPRL1 were cultured overnight in a 24-well tissue culture plate. The cells were washed twice with Tyrode's buffer (137 mM NaCl, 12 mM NaHCO3, 5.6 mM glucose, 2.7 mM KCl, 1 mM CaCl2, 0.5 mM MgCl2, 0.4 mM NaH2PO4, 0.1g/100 ml BSA, and 25 mM HEPES, pH 7.4) and stimulated with each peptide. Various concentrations of WKYMVm were treated in FPR- or FPRL1-expressing RBL-2H3 cells (FIG. 5A). 1 μM of WKYMVm was used to stimulate two cell lines in the absence or presence of 10 μM BAPTA/AM (FIG. 5B). The reaction was terminated 20 min after stimulation by placing the plate on ice. Secretion of β-hexosaminidase into the medium was determined by incubating 50 μl of supernatant or cell lysate with 25 μl of 5 mM p-nitrophenyl-N-acetyl-β-D-glucosamide in 0.1 M sodium citrate buffer (pH 3.8) at 37° C. for 2 hr. At the end of the incubation, 50 μl of 0.4 M Na2CO3 were added. Absorbance was monitored at 405 nm. Data are means ±S.E. of a single representative of three experiments performed in triplicate. Values (means ±S.E.) were expressed as a percent of total β-hexosaminidase present in the cells.
10 μM of each peptide was treated in FPR- (FIG. 6A) or FPRL1-expressing RBL-2H3 cells (FIG. 6B). The peptide-induced secretion of β-hexosaminidase was determined as above. Data are means ±S.E. of a single representative of three experiments performed in triplicate.

FPR [2] = target: T2, FPR (Homo sapiens, UniProt P21462); assay: [Ca2+]i increase in FPR-expressing RBL-2H3 cells (fura-2)
T2 construct: expressed in transfected cells; host or cells: RBL-2H3 (rat basophilic leukemia) cells, G418-selected
T2 sequence (P21462 1-350): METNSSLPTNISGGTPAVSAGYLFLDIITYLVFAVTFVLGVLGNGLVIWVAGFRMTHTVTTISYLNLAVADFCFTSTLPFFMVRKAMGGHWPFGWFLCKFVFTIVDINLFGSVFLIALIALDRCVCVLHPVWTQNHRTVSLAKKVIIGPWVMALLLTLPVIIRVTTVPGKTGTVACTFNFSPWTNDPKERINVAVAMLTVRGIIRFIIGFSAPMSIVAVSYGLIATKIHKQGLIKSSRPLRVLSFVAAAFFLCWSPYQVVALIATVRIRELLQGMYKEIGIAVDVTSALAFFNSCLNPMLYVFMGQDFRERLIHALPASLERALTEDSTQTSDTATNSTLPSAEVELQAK

FPRL1 [3] = target: T1, FPRL1; assay: [Ca2+]i increase in FPRL1-expressing RBL-2H3 cells (fura-2)
Procedure: […] The level of [Ca^2+]i was determined fluorometrically by Grynkiewicz's method using fura-2/AM (15). Briefly, prepared cells were incubated with 3 μM fura-2/AM at 37° C. for 50 min in a fresh serum-free RPMI 1640 medium under continuous stirring. 2×10^6 cells were aliquoted for each assay in Ca^2+-free Locke's solution (154 mM NaCl, 5.6 mM KCl, 1.2 mM MgCl2, 5 mM HEPES, pH 7.3, 10 mM glucose, and 0.2 mM EGTA). Fluorescence changes at the dual excitation wavelengths of 340 nm and 380 nm and the emission wavelength of 500 nm were measured, and the calibrated fluorescence ratio was translated into [Ca^2+]i. The peak level of the increased [Ca^2+]i was monitored.
[…] The level of [Ca^2+]i was determined by the same procedures as above. The peak level of the increased [Ca^2+]i was monitored.

human neutrophils = assay: Superoxide generation in human neutrophils (cytochrome c reduction); conditions: for O^2− (nmol/10^6 cells), superoxide generation: cytochrome c reduction
Procedure: Peripheral blood leukocyte concentrates were donated by the Ulsan Red Cross Blood Center (Ulsan, Korea). Human neutrophils were isolated according to the standard procedures of dextran sedimentation, hypotonic lysis of erythrocytes, and a lymphocyte separation medium gradient as described above (9). The isolated human neutrophils were then used promptly.
The activity of the peptides, WKYMVm, peptides of SEQ ID NOs: 1 to 24, and wkymvm on superoxide generation in human neutrophils was measured. Superoxide anion generation was quantified by measuring reduction of cytochrome c using a microtiter 96-well plate ELISA reader (Bio-Tekinstruments, EL312e, Winooski, Vt.) as described (14). The human neutrophils (1×10^6 cells/100 μl of RPMI 1640 medium per well of a 96-well plate) were preincubated with 50 μM cytochrome c at 37° C. for 1 min and then incubated with the indicated concentrations of peptides. The superoxide generation was measured as a change in light absorption at 550 nm over 5 minutes at 1 min intervals. From at least four independent experiments, peptides with active amino acids at each position were chosen.

FPRL1 [4] = target: T1, FPRL1; assay: ERK phosphorylation in FPRL1-expressing RBL-2H3 cells (immunoblot); conditions: pretreatment prior to 1 μM WKYMVm, PTX 100 ng/ml, LY294002 50 μM, GFX 5 μM, BAPTA/AM 10 μM, PD98059 50 μM
Procedure: (§1) Cultured RBL-2H3 cells were aliquoted into 2×10^6 cells and stimulated with the indicated concentrations of WKYMVm and the peptides of the present invention for the indicated lengths of time. FPR- or FPRL1-expressing RBL-2H3 cells were stimulated with 1 μM WKYMVm for various periods of time (FIG. 3A). Two cells were preincubated with a vehicle or 100 ng/ml of PTX (24 hr), 50 μM of LY294002 (15 min), 5 μM of GFX (15 min), 10 μM BAPTA/AM (60 min), or 50 μM PD98059 (60 min) prior to 1 μM of WKYMVm treatment (FIG. 3B). FPR- or FPRL1-expressing RBL2H3 cells were stimulated with 10 μM of the peptides of the present invention for 2 min or 5 min, respectively (FIG. 3C).
(§2) After stimulation, the cells were washed with serum-free RPMI and lysed in a lysis buffer (20 mM Hepes, pH 7.2, 10% glycerol, 150 mM NaCl, 1% Triton X-100, 50 mM NaF, 1 mM Na3VO4, 10 μg/ml leupeptin, 10 μg/ml aprotinin, and 1 mM phenylmethylsulfonyl fluoride). The detergent-insoluble materials were pelleted by centrifugation (12,000×g, 15 min, at 4° C.), and the soluble supernatant fraction was removed and stored at −80° C. or used immediately. Protein concentrations in the lysates were determined using the Bradford protein assay reagent.
(§3) Each sample ([…] of protein) was subjected to 10% SDS-PAGE and phosphorylated ERK was determined by an immunoblot analysis with an anti-phospho-ERK antibody. Protein samples were prepared for electrophoresis by addition of a concentrated sample buffer. The portions in the samples were then separated by an 10% SDS-polyacrylamide gel using the buffer system described by Laemmli (17).
(§4) Following the electrophoresis, a western blot analysis with an anti-ERK2 antibody was performed to confirm that the same amounts of samples were used for the experiments. The proteins were blotted onto nitrocellulose membranes. The nitrocellulose membranes were then blocked by incubation with TBS (Tris-buffered saline, 0.05% Tween-20) containing 5% non-fat dry milk. Subsequently, the membranes were incubated with anti-phospho-ERK antibody, anti-phospho-Akt antibody or anti-Akt antibody washed with TBS. For a PKC translocation assay, an antibody for PKC isozyme-specific was incubated. Antigen-antibody complexes were visualized after incubating the membrane with a 1:5000 diluted goat anti-rabbit IgG or goat anti-mouse IgG antibody coupled to horseradish peroxidase and using the enhanced chemiluminescence detection system.

FPR [5] = target: T2, FPR; assay: Chemotaxis of FPR-expressing RBL-2H3 cells (modified Boyden chamber); conditions: FPR cells; 50 μM LY294002 (15 min), 50 μM PD98059 (60 min); 1 μM WKYMVm
Procedure: (§5) Chemotaxis assays were performed using multiwell chambers (modified Boyden chamber assay) (Neuroprobe Inc., Gaithersburg, Md.) (18). Briefly, polycarbonate filters (8 μm pore size) were precoated with 50 μg/ml of rat type I collagen (Collaborative Biomedicals) in a HEPES-buffered RPMI 1640 medium. A dry coated filter was placed on a 96-well chamber containing different concentrations of peptides. RBL-2H3 cells expressing FPR or FPRL1 were suspended in RPMI at a concentration of 1×10^6 cells/ml of serum-free RPMI, and 25 μl of the suspension were placed onto the upper well of the 96-well chemotaxis chamber. After incubation for 4 hours at 37° C., non-migrated cells were removed by scraping them out, and cells that migrated across the filter were dehydrated, fixed, and stained with hematoxylin (Sigma, St. Louis, Mo.). The stained cells in five randomly chosen high power fields (HPF) (400×) in that well were then counted. […] The numbers of migrated cells were determined by counting them in a high power field (400×). The Data are presented as means ±SE of three independent experiments each performed in duplicate. The effect of the peptides of the present invention on cellular chemotaxis in FPR- or FPRL1-expressing RBL-2H3 cells was measured. Various concentrations of each peptide were used for the chemotaxis assay with FPR- or FPRL1-expressing RBL-2H3 cells. The numbers of migrated cells were determined by counting them in a high power field (400×). The Data are presented as means ±SE of two independent experiments each performed in duplicates.

FPRL1 [6] = target: T1, FPRL1; assay: Chemotaxis of FPRL1-expressing RBL-2H3 cells (modified Boyden chamber); conditions: FPRL1 cells; 50 μM LY294002 (15 min), 50 μM PD98059 (60 min); 1 μM WKYMVm
Procedure: as §5

FPR [7] = target: T2, FPR; assay: ERK phosphorylation in FPR-expressing RBL-2H3 cells (immunoblot); conditions: pretreatment prior to 1 μM WKYMVm, PTX 100 ng/ml, LY294002 50 μM, GFX 5 μM, BAPTA/AM 10 μM, PD98059 50 μM
Procedure: as §1, §2, §3, §4

Row | SMILES | [Ca^2+]i increasing activity (FPR [2]) | [Ca^2+]i increasing activity (FPRL1 [3]) | O^2− (nmol/10^6 cells), superoxide generation (human neutrophils; peptide 100 nM) [nmol/10^6 cells] | O^2− (nmol/10^6 cells), superoxide generation (human neutrophils; peptide 10 μM) [nmol/10^6 cells] | effect of inhibitor pretreatment on WKYMVm-induced ERKs activation (FPRL1 [4]) | effect of inhibitor pretreatment on WKYMVm-induced ERKs activation (FPR [7]) | other results
1 | CSCC[C@H](NC=O)C(=O)N[C@@H](CC(C)C)C(=O)N[C@@H](Cc1ccccc1)C(=O)O [fMLF, N-formyl-methionyl-leucyl-phenylalanine] |  |  |  |  |  |  | granule secretion / β-hexosaminidase release (words) (FPRL1 [1]): but not fMLF or wkymvm, stimulated granule secretion
2 | CSCC[C@H](NC(=O)[C@H](Cc1ccccc1)NC(=O)[C@H](CCCCN)NC(=O)[C@@H](N)Cc1c[nH]c2ccccc12)C(=O)N[C@H](C(=O)N[C@H](CCSC)C(N)=O)C(C)C [WKFMVm-NH2, Trp-Lys-Phe-Met-Val-D-Met-NH2] (H-WKFMV[dM]-NH2; N-terminus assumed) | more improved affinity for the FPR against the peptide WKYMVm | higher affinity to FPRL1 | 37.3 ± 3.56 | 60.2 ± 5.57 |  |  | superoxide generating activity (human neutrophils; 100 nM of peptides): stimulated superoxide generation; superoxide generation (human neutrophils; 10 μM concentration): more potent activity than WKYMVm
3 | CSCC[C@H](NC(=O)[C@H](Cc1ccc(O)cc1)NC(=O)[C@H](CCCCN)NC(=O)[C@@H](N)Cc1c[nH]c2ccccc12)C(=O)NCC(=O)N[C@H](CCSC)C(N)=O [WKYMGm-NH2, Trp-Lys-Tyr-Met-Gly-D-Met-NH2] (H-WKYMG[dM]-NH2; N-terminus assumed) | did not effect a [Ca^2+]i increase until 20 μM treatment | showed [Ca^2+]i-increasing activity in FPRL1 cells, with a little lower affinity to FPRL1 | 1.1 ± 0.05 | 27.3 ± 2.61 |  |  | EC50 (nM), intracellular calcium increase (FPR [2]; fura-2 loaded): inactive
4 | COc1cccc(-c2cc(=O)c3ccccc3o2)c1N [PD98059, reference compound] |  |  |  |  | sensitive | sensitive | effect of inhibitor pretreatment on WKYMVm-induced cellular chemotaxis (FPR [5]): sensitive; effect of inhibitor pretreatment on WKYMVm-induced cellular chemotaxis (FPRL1 [6]): sensitive
5 | Cn1cc(C2=C(c3cn(CCCSC(=N)N)c4ccccc34)C(=O)NC2=O)c2ccccc21 [Ro-31-8220] |  |  |  |  | could not effect WKYMVm-induced ERK activation | could not effect WKYMVm-induced ERK activation | 
6 | CN(C)CCCn1cc(C2=C(c3c[nH]c4ccccc34)C(=O)NC2=O)c2ccccc21 [GF109203X] |  |  |  |  | could not effect WKYMVm-induced ERK activation | could not effect WKYMVm-induced ERK activation | 
